From article PMC6134404 (Organic & biomolecular chemistry, 2018)

Columns and labels:
[1] = molecular target: T1, OxaC (Penicillium oxalicum, UniProt A0A1B2TT09); experiment: X-ray crystal structure, […] Å; assay type: binding
[2] = molecular target: T1, OxaC; experiment: X-ray crystal structure, […] Å; assay type: binding; remark: listed apart in the source
[3] = system: C=CC(C)(C)[C@@]12C=C(O)C(=O)N3/C(=C/c4cnc[nH]4)C(=O)N[C@]31N(OC)c1ccccc12; experiment: HPLC initial-velocity assay, Michaelis-Menten fit; assay type: biochemical, Penicillium oxalicum; settings: 0.9 nM OxaC, 0.5 mM SAM, 50 mM Na/K phosphate pH 8.0, 23 °C
[4] = molecular target: the molecule itself; experiment: crystal structure

Nc1ncnc2c1ncn2[C@@H]1O[C@H](CSCC[C@H](N)C(=O)O)[C@@H](O)[C@H]1O [S-adenosyl-L-homocysteine]
X-ray crystal structure, 2.50 Å ([1]; SAM site, product complex with oxaline): a product complex containing SAH and oxaline

Nc1ncnc2c1ncn2[C@@H]1O[C@H](C[C@@H](N)CC[C@H](N)C(=O)O)[C@@H](O)[C@H]1O [sinefungin]
X-ray crystal structure, 2.95 Å ([2]; SAM site, complex with meleagrin): a pseudo-Michaelis complex composed of the SAM analog sinefungin and the natural substrate meleagrin

C=CC(C)(C)[C@]12C=C(OC)C(=O)N3/C(=C/c4cnc[nH]4)C(=O)N[C@@]31N(OC)c1ccccc12 [compound 3, oxaline]
X-ray crystal structure, 2.50 Å ([1]; product complex with SAH, co-crystallised with meleagrin and SAM): a product complex containing SAH and oxaline

OxaC (Penicillium oxalicum)
Km [3]: 3.1 ± 0.9 µM
kcat [3]: 1.3 ± 0.2 s⁻¹
kcat/Km [3]: 420000 M⁻¹ s⁻¹

C=CC(C)(C)[C@@]12C=C(O)C(=O)N3/C(=C/c4cnc[nH]4)C(=O)N[C@]31N(OC)c1ccccc12 [compound 2, meleagrin]
X-ray crystal structure, 2.95 Å ([2]; pseudo-Michaelis complex with sinefungin): a pseudo-Michaelis complex composed of the SAM analog sinefungin and the natural substrate meleagrin

B1: OxaC (enzyme)
chain: MGSSHHHHHHHHGASENLYFQGASMTFSNADAQKIAVQKDVDEVVAAAQRFLHGSGNATSDEAKVDLQKKASNLVQTIRGPIPAALSSMEDIVKVASLRTLFEAGVFHAMPKGGASMTASEISAQTGLDKGILIRLMRAVTPLGPFHEVGEEEYAHTPFSEAYLTADIAGCFPVMSNFIFGPVLQICDFLRQNNWKDAITTRNNPFTLAHNCPGETMFEHLYKNSKNVAPVTKAEAADVDQIAMDLYPWEERLSDAKGSNATLVDIAGSHGNGTRAIMALAPKLNGCRFIVQDLEPVIGEHSQALRAEGIEPQVYDFLKQEQPVHGASIYYFRRVFHDWPDLPEGKKILDNTRAAMSREHSRILIHDIIVPEIGATMSHAWQDLSLMAIGGMERTEKDFARLLDIAGLALVKVWRKPGDMMGIIEARLK
stoichiometry N [4]: 2
